What was measured:
[1] = Nuclease resistance assay in DMEM with 10% fetal bovine serum; assay type: in vitro ADME; details: 0.1 µg/µl, DMEM with 10% FBS, 37°C; 12% PAAG/8M urea gel, Stains-All
Description: Oligonucleotides or conjugates (0.1 µg/µl) were incubated at 37°C in Dulbecco’s Modified Eagle Medium (DMEM) (Sigma, USA) with 10% fetal bovine serum (FBS; GE Healthcare, USA). Reactions were quenched in urea (8M) and immediately frozen in liquid nitrogen, prior to analysis of thawed samples in 12% PAAG/8M urea gels, using Tris-Borate-EDTA (TBE) as running buffer, Stains-All (MP Biomedicals, USA) and photographic gel documentation (VilberLourmat, France).

B16 melanoma cells = experiment: Annexin V-FITC/PI apoptosis assay; assay type: cell-based, mouse; details: 1 µM with Lipofectamine; 24, 48, 72 h after transfection; maximum extent; flow cytometry
Description: (§1) B16 cells were pre-seeded (2 × 10^5 per well of 24-well plates) in DMEM/10% FBS a day before transfection. Medium was replaced with serum-free DMEM, prior to incubation for 4 h with h-ODN, 2′-OMe, Inh (hsa-miR-21 5 p inhibitor, Ambion, USA), miR-21-miRNase, or luc-POC, each (0.1 or 1 µM) pre-complexed with Lipofectamine (Thermo Fisher Scientific, USA) in Opti-MEM medium (Thermo Fisher Scientific, USA) according to manufacturer’s instructions, then cells were cultivated in fresh culture standard medium for 24–72 h.
At 24, 48, and 72 h after transfection, cells were harvested, washed twice with PBS, resuspended in Binding Buffer to a density of 2–5 × 10^5/ml, and incubated with annexin V-FITC and propidium iodide (PI) (ab14085, Abcam, UK) in the dark at room temperature for 15 min, prior to flow cytometry analysis (Novocyte CEA Biosciences, USA).
(§2) Figure 2 Biological effect of the miR-21-specific miRNase. (A) Apoptotic profile of B16 melanoma cells after transfection with miR-21-miRNase and control luc-POC. Cytofluorimetric analysis of cells after staining with Annexin V-FITC/PI 48 h after transfection with miRNase or luc-POC (1 µM) in complex with Lipofectamine2000. Q1—population of living cells; Q2—Annexin V-FITC+/PI-, early apoptosis; Q3—Annexin V-FITC+/PI+, late apoptosis; Q4—Annexin V-FITC-/PI+, necrosis. (B) Average percentage of apoptotic (early and late apoptosis) and necrotic B16 cell population. Data represent mean ± s.e. of four independent experiments.(C, D) Invasion activity of B16 cells after incubation with Lipofectamine (LF) alone or treated with either hairpin antisense oligonucleotide (h-ODN), hairpin 2′-OMe oligonucleotide (2′-OMe), commercial miR-21 inhibitor (Inh), miR-21-miRNase, and control conjugate (luc-POC) in the concentration of 1 µM. Migration of cells was recorded in real time using the xCELLigence cell analysis system. Control—B16 cells without treatment. Data represent mean ± s.d. of four independent experiments.

RLS40 lymphosarcoma [2] = experiment: Hepatic index of mice implanted with treated RLS40 cells; assay type: in vivo; details: cells treated with 1 µM; (liver weight/mouse weight) × 100%; 5.0% for healthy CBA mice; Mean ± SE
Description: (§3) RLS40 ascites were taken from CBA mice intraperitoneally injected with tumor cells (2 × 10^6 in 0.2 ml buffered saline) into their abdominal cavities. RLS40 cells, isolated from ascites fluid by filtration through LSM were divided into seven portions: 1) untreated cells; 2) the cells incubated with Lipofectamine; the cells transfected with 1 µM of 3) h-ODN, 4) 2′-OMe, 5) Inh, 6) miR-21-miRNase, or 7) luc-POC each. After 4 h of transfection, cell suspensions (0.1 ml, 2 × 10^6 cells) were intramuscularly inoculated into the right lower limb of CBA mice for solid tumor development. As soon as tumors began to be palpable, the tumor volumes were measured every 2–3 days using calipers. Tumor volumes were calculated as V = (π/6 × length × width × height). Hepatic index was estimated as (liver weight/mouse weight) × 100% and as 5.0% for healthy CBA mice. Tumor doubling time (DT) was estimated as DT = (t − t0) × ln 2/(ln V − ln V0), where (t − t0) indicates the length of time between two measurements of tumor size and V0 and V denote the tumor volume at two points of the measurement ([Ozono et al., 2004]).
Supplementary Table 2. Hepatic indexes of mice implanted with RLS40 treated with antisense
oligonucleotides, control luc-POC and miR-21-miRNase
Type of treatment Hepatic index, %* p-value (vs control)
* – Mean ± SE; s.i. – statistically insignificant
Hepatic index was estimated as (liver weight/mouse weight) × 100% and as 5.0% for healthy CBA
The MDR status of RLS40 may add to the burden on the liver, when this type of tumor
metastasizes into the liver (Sen’kova et al., 2012). Ex vivo treatment of RLS40 cells by
oligonucleotides and miRNase avoids the toxic effect of antisense oligonucleotides, their conjugates
and transfection reagents directly on the tumor-bearing animal. This may allow consideration of
whether the decrease of migration activity of tumor cells translated into reduced metastatic burden of
RLS40 on the liver. Treatment of the cells seeding the tumor may not reduce migration and […]

RLS40 lymphosarcoma [3] = experiment: Tumor transplantation assay: RLS40 cells treated ex vivo, then inoculated intramuscularly; assay type: in vivo, CBA mice; details: cells treated with 1 µM before transplantation
Description: as §3
Figure 3 Antitumor effect of miR-21-specific miRNase. (A) Retardation of RLS40 growth in vivo after treatment of RLS40 cells with antisense oligonucleotides, control conjugate (luc-POC), or miR-21-miRNase. (B) Tumor volume on day 19 after RLS40 transplantation. Mice were injected with RLS40 cells either without any treatment (w/t) or treated with Lipofectamine (LF), commercial miR-21 inhibitor at concentration 0.1 µM (Inh 0.1, recommended) and 1 µM (Inh 1, in accordance to concentration of miRNase used in the study), control conjugate (luc-POC, 1 µM), hairpin 2′OMe oligonucleotide (2′-OMe, 1 µM), hairpin antisense oligonucleotide (h-ODN, 1 µM) or miR-21-specific miRNase (miR-21-miRNase, 1 µM). Data were statistically analyzed using two-way ANOVA with post hoc Tukey test. Data are presented as mean ± s.e. p-value indicates a statistically reliable difference. (C) Doubling time of RLS40 tumors after treatment with oligonucleotides and conjugates. TEXT PRINTED IN THE PICTURE: (C) untreated: DT, days: 2,45±0,49 | (C) LF: DT, days: 2,48±0,35 | (C) Inh 0.1: DT, days: 2,56±0,59 | (C) Inh 1: DT, days: 13,90±0,46 | (C) 2’-OMe: DT, days: 3,17±1,45 | (C) luc-POC: DT, days: 2,40±0,45 | (C) h-ODN: DT, days: 3,00±1,83 | (C) miR-21-miRNase: DT, days: 12,77±0,34

B16 cells = experiment: In vitro invasiveness assay (xCELLigence, Matrigel-coated CIM-Plates); assay type: cell-based, mouse; details: 1 µM with Lipofectamine; compared with Lipofectamine alone
Description: as §1
Real-time cell analysis (xCELLigence, ACEABiosciences, USA) used CIM-Plates held at 37°C under an atmosphere of 5% CO2. Top chamber wells were coated with Matrigel (20 µl per well, diluted 1:40 with cold serum-free DMEM) and allowed to polymerize (4 h at 37°C under 5% CO2) prior to cell seeding. Bottom chamber wells were filled with DMEM/10% FBS (160 µl each), prior to assembly of the chambers, when serum-free DMEM was added to the top wells (30 µl each) and equilibrated (1 h at 37°C under 5% CO2). At 4 h after transfection, B16 cells (4 × 10^4) were seeded into each top chamber well in serum-free DMEM and pre-incubated for 30 min at room temperature before monitoring (xCELLigence set to collect impedance data, reported as cell index at least once every 30 min).
as §2

| Substance | Survival (intact) in serum-containing medium [1] | Necrosis of melanoma B16 cells (Annexin V-FITC-/PI+) (B16 melanoma cells) | Hepatic index (RLS40 lymphosarcoma [2]) [%] | Tumor doubling time against w/t (in words) (RLS40 lymphosarcoma [3]) | Tumor growth (in words) (RLS40 lymphosarcoma [3]) | Migration rate of transfected B16 cells (in words) (B16 cells) |
| --- | --- | --- | --- | --- | --- | --- |
| ODN: linear 14-mer deoxyribooligonucleotide TCAGTCTGATAAGC (unmodified DNA) | rapidly degraded | – | – | – | – | – |
| acetyl-[(LeuArg)2Gly]2-aminohexyl-CGATAAATAACGCGСAAGTCAGCGAAAGCTGACTTG [luc-POC, control peptide-oligonucleotide conjugate; same hairpin, complementary part replaced by luciferase gene fragment] | – | up to 6.5% | 5.56±0.11 | did not show a statistically significant difference | did not differ | almost the same rate as cells incubated with Lipofectamine |

Reference: PMC6698794, “Catalytic Knockdown of miR-21 by Artificial Ribonuclease: Biological Performance in Tumor Model” (Frontiers in Pharmacology, 2019)
